We go through seven compounds from US6531496B1 (Bayer Aktiengesellschaft, priority 1999, dated 2003).

≈ marks a conversion by molar mass, not a printed value. Bounds are passed on as bounds.

Series [1] can be described thus: logP by HPLC (EEC Directive 79/831 Annex V. A8, gradient method). It is filed as physicochemical. Conditions: gradient of acetonitrile/0.1% aqueous phosphoric acid; HPLC, gradient method, acetonitrile/0.1% aqueous phosphoric acid; Table 1.
Series [2] has as its system green peach aphid (Myzus persicae). The series can be described thus: Myzus test. Conditions: active compound concentration 0.01%. It is filed as in vivo. As to the method: Solvent: 6 parts by weight of dimethylformamide
67 parts by weight of methanol
Emulsifier: 2 parts by weight of alkylaryl polyglcol ether
To prepare a suitable active compound preparation, 1 part by weight of active compound is mixed with the stated amount of solvent and the stated amount of emulsifier, and the concentrate is diluted with emulsifier-containing water to the desired concentrations.
Field bean (Vicia faba) seedlings which are infested with the green peach aphid (Myzus persicae) are immersed into an active compound preparation of the desired concentration and placed into a plastic box.
After the desired period of time, the destruction is determined in %. 100% means that all the animals have been killed; 0% means that none of the animals have been killed.

Series [3] concerns Plasmopara viticola. The series can be described thus: Plasmopara test (grapevine)/protective. It is filed as in vivo. Conditions: 144 h, protective, evaluated 6 days after inoculation, read-out: Efficacy in %. As to the method: Plasmopara Test (Grapevine)/Protective Solvent: 47 parts by weight of acetone Emulsifier: 3 parts by weight of alkylaryl polyglycol ether To prepare a suitable active compound preparation, 1 part by weight of active compound is mixed with the stated amounts of solvent and emulsifier, and the concentrate is diluted with water to the desired concentration. To test for protective activity, young plants are sprayed with the active compound preparation at the application rate stated. After the spray coating has dried on, the plants are inoculated with an aqueous spore suspension of Plasmopara viticola and then remain for 1 day in an incubation cabinet at approx. 20° C. and a relative atmospheric humidity of 100%. […] The plants are then moistened and placed in an incubation cabinet for 1 day.

In series [4] the test system is Venturia inaequalis. Nature of the series: Venturia test (apple)/protective. It is filed as in vivo. Conditions: 288 h, protective, evaluated 12 days after inoculation, read-out: Efficacy in %. Here is the method:
Venturia Test (Apple)/Protective Solvent: 47 parts by weight of acetone Emulsifier: 3 parts by weight of alkylaryl polyglycol ether To prepare a suitable active compound preparation, 1 part by weight of active compound is mixed with the stated amounts of solvent and emulsifier, and the concentrate is diluted with water to the desired concentration. To test for protective activity, young plants are sprayed with the active compound preparation at the application rate stated. After the spray coating has dried on, the plants are inoculated with an aqueous conidial suspension of the apple scab pathogen Venturia inaequalis and then remain for 1 day in an incubation cabinet at approx. 20° C. and 100% relative atmospheric humidity.

The test system of series [5] is Plutella. Nature of the series: Plutella test/synthetic feed. It is filed as in vivo. Conditions: active compound concentration 0.1%, after 7 days. As to the method:
Plutella Test/Synthetic Feed Solvent: 100 parts by weight of acetone […] 1900 parts by weight of methanol To prepare a suitable active compound preparation, 1 part by weight of active compound is mixed with the stated amount of solvent and the concentrate is diluted with methanol to the desired concentration. A stated amount of active compound preparation of the desired concentration is pipetted onto a standardized amount of synthetic feed. After the methanol has evaporated, the lid of a film box, populated with approx. 100 Plutella eggs, is placed over each cavity. The freshly hatched larvae crawl onto the treated synthetic feed. After the desired time, the destruction is determined in %. 100% means that all the animals have been killed; 0% means that none of the animals have been killed.

For series [6], the system named is Chaetomium globosum. Nature of the series: Minimum inhibitory concentration on malt extract agar. It is filed as cell-based. Conditions: 2 weeks at 28° C. Here is the method: (§1) To confirm the activity against fungi (Penicillium brevicaule, Chaetomium globosum, Aspergillus Niger), the minimum inhibitory concentrations (MICs) of agents according to the invention are determined:
(§2) Active compounds according to the invention are added in concentrations of from 0.1 mg/l to 5 000 mg/l to an agar prepared using malt extract. […] The MIC is the lowest concentration of active compound at which no growth whatsoever by the microbial species used occurs; it is indicated in the table which follows.

Series [7] has as its system Aspergillus Niger. The description is as above. It is filed as cell-based. Conditions: 2 weeks at 28° C. Here is the method:
as §1, §2

Series [8] concerns Penicillium brevicaule. Described as above. It is filed as cell-based. Conditions: 2 weeks at 28° C.; for MIC: Penicillium, 336 h, read-out: Minimum inhibitory concentrations Penicillium brevicaule. Here is the method:
as §1, §2

Series [9] deals with greenhouse red spider mite (Tetranychus urticae). The series can be described thus: Tetranychus test (OP-resistant/immersion treatment). It is filed as in vivo. Conditions: active compound concentration 0.01%. As to the method:
Tetranychus Test (OP-resistant/Immersion Treatment)
Solvent: 3 parts by weight of dimethylformamide
Emulsifier: 1 part by weight of alkylaryl polyglycol ether
To prepare a suitable active compound preparation, 1 part by weight of active compound is mixed with the stated amount of solvent and the stated amount of emulsifier, and the concentrate is diluted with water to the desired concentrations.
Bean plants (Phaseolus vulgaris) which are severely infested by all stages of the greenhouse red spider mite (Tetranychus urticae) are immersed into an active compound preparation of the desired concentration.
After the desired time, the efficacy is determined in %. 100% means that all the spider mites have been killed; 0% means that none of the spider mites have been killed.

For orientation: chromatographic logP means lipophilicity estimated from chromatographic retention. Low readings indicate a more hydrophilic compound, high ones a more lipophilic compound. In series [1], `C/C(=N/OCc1ccccc1)c1ccc(OC2=NS(=O)(=O)CS2)cc1` [Example 22] registered a chromatographic logP of 3.67. For the same compound, the “Destruction in % after 6^d” value in series [2] is listed as 100%.
Take `CC(=O)c1cccc(OC2=NS(=O)(=O)CS2)c1` [Example 40]: the pest or weed control at 250 g/ha in series [3] and in [4] was at least 90% throughout. The compound also gave a chromatographic logP in [1] of 1.73. For the same compound, the “Destruction in % after 6^d” value in series [2] is 90%.
`Nc1ccc(OC2=NS(=O)(=O)CS2)c(Cl)c1Cl` [Example 14]: in series [3], the pest or weed control at 250 g/ha is at least 90%. Also, the “Destruction in % after 7^d” value in [5] is listed as 95%.
As for `Cc1cc(Cl)cc(OC2=NS(=O)(=O)CS2)c1` [Example 92], the “Minimum inhibitory concentrations Chaetomium globosum” value in [6] is listed as 100 ppm. The “Minimum inhibitory concentrations Aspergillus Niger” value in series [7] is listed as 100 ppm. For the same compound, in [8], the “Minimum inhibitory concentrations Penicillium brevicaule” value was 20 ppm.
In the case of `O=S1(=O)CSC(Oc2cccc(Cl)c2)=N1` [Example 94], in [6], the “Minimum inhibitory concentrations Chaetomium globosum” value was found to be 100 ppm. The “Minimum inhibitory concentrations Aspergillus Niger” value in series [7] came to 100 ppm. Also, in [8], the “Minimum inhibitory concentrations Penicillium brevicaule” value is recorded as 20 ppm and the MIC was 10 to 100 µg/mL (≈ 37.9 to 379 µM). For the same compound, the pest or weed control at 250 g/ha in [4] is at least 90%.
`CO/N=C(/C)c1ccc(OC2=NS(=O)(=O)CS2)cc1` [Example 20]: the “Destruction in % after 7^h” value in series [9] (after 7^h) was found to be 95%. For the same compound, the “destruction after 7 days” value in [9] (after 7 days) is 95%. Further, the chromatographic logP in [1] turned out to be 2.62.
For the compound `O=S1(=O)CSC(Oc2ccc(Cl)c(Cl)c2)=N1` [Example 100], the pest or weed control at 250 g/ha in [3] was at least 90%. The “Minimum inhibitory concentrations Chaetomium globosum” value in series [6] came to 50 ppm. The “Minimum inhibitory concentrations Aspergillus Niger” value in [7] is on record as 100 ppm. Further, in series [8], the “Minimum inhibitory concentrations Penicillium brevicaule” value is given as 20 ppm and the MIC was 10 to 100 µg/mL (≈ 33.5 to 335 µM). Moreover, the pest or weed control at 250 g/ha in series [4] was at least 90%.
